{"source": "patent US11395847B2", "about": "“Acylated GLP-1/GLP-2 dual agonists” (Zealand Pharma A/S, priority 2016, dated 2022)", "key": {"[1]": {"target": "T1, human GLP-2 receptor (Homo sapiens, UniProt O95838, D470N)", "T1 construct": "expressed in transfected cells", "T1 sequence (O95838 1-553 D470N)": "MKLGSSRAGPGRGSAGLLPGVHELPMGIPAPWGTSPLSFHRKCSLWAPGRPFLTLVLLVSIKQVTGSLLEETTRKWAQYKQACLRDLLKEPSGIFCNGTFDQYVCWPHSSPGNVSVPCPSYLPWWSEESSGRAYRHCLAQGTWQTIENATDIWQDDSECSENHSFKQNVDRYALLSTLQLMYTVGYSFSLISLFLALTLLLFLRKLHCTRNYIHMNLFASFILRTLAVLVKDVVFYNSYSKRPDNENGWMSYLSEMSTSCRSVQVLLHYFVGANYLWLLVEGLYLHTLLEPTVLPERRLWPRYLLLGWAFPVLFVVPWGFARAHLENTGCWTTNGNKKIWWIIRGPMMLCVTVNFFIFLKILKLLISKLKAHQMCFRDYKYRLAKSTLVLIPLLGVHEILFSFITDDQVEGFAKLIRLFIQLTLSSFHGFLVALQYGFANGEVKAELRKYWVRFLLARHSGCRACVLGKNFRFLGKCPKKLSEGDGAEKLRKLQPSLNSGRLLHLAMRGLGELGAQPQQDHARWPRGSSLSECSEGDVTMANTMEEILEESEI", "test": "GLP-2 receptor potency assay (cAMP ALPHASCREEN, HEK293 cells stably expressing GLP-2 R)", "type": "cell-based", "settings": "cAMP response, HEK293 cells expressing human GLP-2 R; read-out: EC50 GLP-2", "how_it_was_run": "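HEK293 clones stably transfected with the human GLP-2 receptor, selected with G418, were used. Intracellular cAMP was quantified by AlphaScreen. Responses were normalised to positive and vehicle controls, and EC50 and maximal response were taken from concentration-response curves.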"}, "[2]": {"target": "T2, human GLP-1 receptor (Homo sapiens, UniProt P43220)", "T2 construct": "expressed in transfected cells", "T2 sequence (P43220 24-463)": "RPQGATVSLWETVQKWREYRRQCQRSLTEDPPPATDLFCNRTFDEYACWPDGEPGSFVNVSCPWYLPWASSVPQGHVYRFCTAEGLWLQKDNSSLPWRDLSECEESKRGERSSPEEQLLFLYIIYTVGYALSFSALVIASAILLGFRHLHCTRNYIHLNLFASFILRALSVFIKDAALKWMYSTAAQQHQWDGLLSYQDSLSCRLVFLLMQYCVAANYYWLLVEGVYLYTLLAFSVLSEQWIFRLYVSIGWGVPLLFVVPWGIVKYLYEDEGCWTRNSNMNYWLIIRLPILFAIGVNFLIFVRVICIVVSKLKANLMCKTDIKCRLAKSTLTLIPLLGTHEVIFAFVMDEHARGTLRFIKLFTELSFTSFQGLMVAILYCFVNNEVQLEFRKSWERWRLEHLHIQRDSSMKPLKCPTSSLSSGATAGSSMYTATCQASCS", "test": "GLP-1 receptor potency assay (cAMP ALPHASCREEN, HEK293 cells stably expressing GLP-1 R)", "type": "cell-based", "settings": "cAMP response, HEK293 cells expressing human GLP-1 R", "description": "One useful in vitro assay for measuring GLP-1 and GLP-2 receptor activity is quantitation of cAMP, i.e. 3′-5′-cyclic adenosine monophosphate, which is a second messenger essential in many biological processes, and one of the most ubiquitous mechanisms for regulating cellular functions.\nThe cDNA encoding the human glucagon-like peptide 1 receptor (GLP-1 R) (primary accession number P43220) was cloned from the cDNA BC112126 (MGC:138331/IMAGE:8327594). The DNA encoding the GLP-1-R was amplified by PCR using primers encoding terminal restriction sites for subcloning. The 5′-end primers additionally encoded a near Kozak consensus sequence to ensure efficient translation. […] The PCR products encoding the GLP-1-R were subcloned into a mammalian expression vector containing a neomycin (G418) resistance marker. The mammalian expression vectors encoding the GLP-1-R were transfected into HEK293 cells by a standard calcium phosphate transfection method. 48 hours post-transfection, cells were seeded for limited dilution cloning and selected with 1 mg/ml G418 in the culture medium. Following 3 weeks in G418 selection clones were picked and tested in a functional GLP-1 receptor potency assay as described below.\nThe cAMP ALPHASCREEN® assay from Perkin Elmer was used to quantitate the cAMP response to activation of the GLP1 and GLP2 receptor, respectively. […] Data from test compounds eliciting an increase in the intracellular level of cAMP were normalized relative to the positive and negative control (vehicle) to calculate the EC50 and maximal response from the concentration response curve."}}, "note": "Where a SMILES comes first, the peptide text is derived from it.", "data": [{"smiles": "CC[C@H](C)[C@H](NC(=O)[C@H](Cc1ccccc1)NC(=O)[C@H](CC(=O)O)NC(=O)[C@H](CCCNC(=N)N)NC(=O)[C@H](C)NC(=O)[C@H](C)NC(=O)[C@H](CCCCNC(=O)COCCOCCNC(=O)[C@H](CCCCN)NC(=O)[C@H](CCC(=O)O)NC(=O)[C@H](CCCCN)NC(=O)CC[C@H](NC(=O)CCCCCCCCCCCCCCCCCCC(=O)O)C(=O)O)NC(=O)[C@H](C)NC(=O)[C@H](CC(=O)O)NC(=O)[C@H](CC(C)C)NC(=O)[C@@H](NC(=O)[C@@H](NC(=O)[C@H](C)NC(=O)[C@H](CC(C)C)NC(=O)[C@H](CCC(=O)O)NC(=O)[C@H](CO)NC(=O)[C@@H](NC(=O)[C@H](Cc1ccccc1)NC(=O)[C@H](CO)NC(=O)CNC(=O)[C@H](CCC(=O)O)NC(=O)C(C)(C)NC(=O)[C@@H](N)Cc1c[nH]cn1)[C@@H](C)O)[C@@H](C)O)[C@@H](C)CC)C(=O)N[C@@H](C)C(=O)N[C@@H](Cc1c[nH]c2ccccc12)C(=O)N[C@@H](CC(C)C)C(=O)N[C@H](C(=O)N[C@@H](CCC(=O)O)C(=O)N[C@@H](Cc1c[nH]cn1)C(=O)N[C@@H](CCCCN)C(=O)N[C@H](C(=O)N[C@H](C(=O)N[C@@H](CC(=O)O)C(=O)O)[C@@H](C)O)[C@@H](C)CC)[C@@H](C)CC", "note": "[Compound 62] (HELM PEPTIDE1{H.[Aib].E.G.S.F.T.S.E.L.A.T.I.L.D.A.K.A.A.R.D.F.I.A.W.L.I.E.H.K.I.T.D}|PEPTIDE2{[O=C(O)CCCCCCCCCCCCCCCCCCC(=O)[*:2]].[gGlu].K.E.K.[O=C(COCCOCCN[*:1])[*:2]]}$PEPTIDE1,PEPTIDE2,17:R3-6:R2$$$V2.0)", "values": [{"measurement": "EC50", "setting": "[1]", "value": 0.15, "unit": "nM"}, {"measurement": "EC50", "setting": "[2]", "value": 0.27, "unit": "nM"}]}, {"smiles": "CC[C@H](C)[C@H](NC(=O)[C@H](Cc1ccccc1)NC(=O)[C@H](CC(=O)O)NC(=O)[C@H](CCCNC(=N)N)NC(=O)[C@H](C)NC(=O)[C@H](C)NC(=O)[C@H](CC(C)C)NC(=O)[C@H](CCCCNC(=O)CC[C@H](NC(=O)CCCCCCCCCCCCCCCCC(=O)O)C(=O)O)NC(=O)[C@H](CC(=O)O)NC(=O)[C@H](CC(C)C)NC(=O)[C@@H](NC(=O)[C@@H](NC(=O)[C@H](C)NC(=O)[C@H](CC(C)C)NC(=O)[C@H](CCC(=O)O)NC(=O)[C@H](CO)NC(=O)[C@H](CO)NC(=O)[C@H](Cc1ccccc1)NC(=O)[C@@H](NC(=O)CNC(=O)[C@H](CCC(=O)O)NC(=O)C(C)(C)NC(=O)[C@@H](N)Cc1c[nH]cn1)[C@@H](C)O)[C@@H](C)O)[C@@H](C)CC)C(=O)N[C@@H](C)C(=O)N[C@@H](Cc1c[nH]c2ccccc12)C(=O)N[C@@H](CC(C)C)C(=O)N[C@H](C(=O)N[C@@H](CCC(=O)O)C(=O)N[C@@H](Cc1c[nH]cn1)C(=O)N[C@@H](CCCCN)C(=O)N[C@H](C(=O)N[C@H](C(=O)N[C@@H](CC(=O)O)C(=O)O)[C@@H](C)O)[C@@H](C)CC)[C@@H](C)CC", "note": "[Compound 10] (HELM PEPTIDE1{H.[Aib].E.G.T.F.S.S.E.L.A.T.I.L.D.K.L.A.A.R.D.F.I.A.W.L.I.E.H.K.I.T.D}|PEPTIDE2{[O=C(O)CCCCCCCCCCCCCCCCC(=O)[*:2]].[gGlu]}$PEPTIDE1,PEPTIDE2,16:R3-2:R2$$$V2.0)", "values": [{"measurement": "EC50", "setting": "[1]", "value": 0.087, "unit": "nM"}, {"measurement": "EC50", "setting": "[2]", "value": 1.8, "unit": "nM"}]}]}
